The values that follow come from publication PMC7112222, “Investigation of pyrimidine nucleoside analogues as chemical probes to assess compound effects on the proliferation of Trypanosoma cruzi intracellular parasites” (PLoS Neglected Tropical Diseases, 2020).

By inhibition is commonly meant the relative decrease from the control value, in per cent. The term IC50 denotes the concentration that gives 50% inhibition.

Read-outs that look alike come from different tables or passages of the source. Bounds are passed on as bounds.

Data set [1] deals with T. cruzi intracellular amastigotes. Kind of data set: Image-based assay of the number of T. cruzi infected cells (intracellular amastigotes in 3T3 host cells). Format: cell-based, Trypanosoma cruzi. The note with it: for IC50: highest test concentration 183 μM.
In a further data set the test system is 3T3 cells. Kind of data set: Image-based assay, effect on 3T3 host cells. The data set is classed as cell-based.
Data set [2] has as its system HEK293 cells. In words: Redox-based assay to assess HEK293 viability. The note with it: Homo sapiens, HEK293, 48 hours exposure. Format: cell-based, human. Here is the method: To determine the effect of the nucleoside analogues against a replicating mammalian cell line, analogues were tested against HEK293 cells, utilising a REDOX-based metabolic assay to assess cell viability as previously described. […] Experiments were performed over two biological replicates.

Data set [3] relates to T. cruzi intracellular amastigotes. In words: Image-based assay of the number of T. cruzi infected cells (intracellular amastigotes in 3T3 host cells). The note with it: 2 and 4 hour exposures; 73 μM. The data set is classed as cell-based, Trypanosoma cruzi.
For a further data set, the system named is L. donovani. Set-up: method as in PMID 27021313. The note with it: 72 hours incubation; cited from earlier work.
Data set [4] deals with HEK293 cells. The note with it: read-out: IC50 value, cytotoxicity against HEK293 cells; 72 hours exposure; cited from earlier work.

As for `C#Cc1cn([C@H]2C[C@H](O)[C@@H](CO)O2)c(=O)[nH]c1=O` [EdU, 5-ethynyl-2′-deoxy-uridine], the “SI (selectivity index to T. cruzi intracellular amastigotes in relation to HEK293 cells)” value in data set [1] (48 hours exposure) was found to be 17. For the same compound, the inhibition at 0.018 µM in data set [1] (Trypanosoma cruzi, 48 h, 0.018 μM, 48 hours, read-out: inhibition of T. cruzi growth) worked out at 63 ± 19%. The inhibition at 0.037 µM in data set [1] (Trypanosoma cruzi, 48 h, 0.037 μM, 48 hours, read-out: inhibition of T. cruzi growth) is 51 ± 13%. The 50% inhibitory concentration (IC50) is 73 ± 49 nM in data set [1] (Trypanosoma cruzi, 24 hours exposure, read-out: T. cruzi 24 IC50 value); 420 ± 61 nM in data set [1] (Trypanosoma cruzi, 48 hours incubation, compound wash off, further 72 hours without compound, read-out: T. cruzi Wash off IC50 value); 40 ± 25 nM in data set [1] (Trypanosoma cruzi, 48 hours incubation, read-out: T. cruzi 48 IC50 value); 670 ± 260 nM in the data set on HEK293 cells [2] (highest test concentration 87 μM, EdU value estimated, relative to Emax plateau of 57%); 60 ± 43 nM in the data set on HEK293 cells [4]. The Emax in data set [1] (Trypanosoma cruzi, 24 hours exposure, read-out: T. cruzi 24 relative Emax (in brackets) (converted)) was 83%; in data set [1] (Trypanosoma cruzi, 48 hours incubation, wash off, further 72 hours without compound, read-out: T. cruzi Wash off relative Emax (in brackets) (converted)), 99%; in data set [1] (Trypanosoma cruzi, 48 hours incubation, read-out: T. cruzi 48 relative Emax (in brackets) (converted)), 98%; in the data set with HEK293 cells [2] (read-out: plateau of activity (Emax) against HEK293 cells), 57%. For the same compound, in the data set with 3T3 cells (2 and 4 hour exposures, 73 μM), the “activity against host cells after short exposure” value is on record as “less than 20%”. The “Host cell 3T3 IC50 value 48 h” value in the data set on 3T3 cells (48 h, highest test concentration 183 μM) was “NA (NA = ≤50% activity at the highest concentration tested and an IC50 value could not be determined)”. For the same compound, in the data set on 3T3 cells (48 hours), the “activity against 3T3 cells in the image-based assay” value was under 20%. For the same compound, the “activity against T. cruzi amastigote growth after short exposure” value in data set [3] is reported as “less than 20%”. In addition, the “toxicity toward L. donovani” value in the data set with L. donovani was “lack of toxicity”.
